Where two headings read alike, the source gives them in different places.
Legend:
[1] = target: T1, PI3K (p110α/p85α) (Homo sapiens, UniProt P42336); experiment: PI3K activity assay (ADP Hunter Plus); assay type: biochemical; settings: quantitative results, read-out: PI3K α IC50
T1 construct: purchased Carna Biosciences 07CBS-0402A
Protocol: The kinase activity was measured by using the commercial ADP Hunter™ Plus assay available from DiscoveRx (#33-016), which is a homogeneous assay to measure the accumulation of ADP, a universal product of kinase activity. […] Reaction was carried out for 1 hour at 25° C. Reagent A and B were sequentially added to the wells and plates were incubated for 30 min at 37° C. […] Values were normalized against the control activity included for each enzyme (i.e., 100% PI3 kinase activity, without compound). These values were plot against the inhibitor concentration and were fit to a sigmoid dose-response curve by using the Graphed software.

[2] = system: phospho-Ser-473-Akt; experiment: AKT phosphorylation inhibition, Western blot analysis; assay type: cell-based; settings: cellular p-AKT
Protocol: (§1) Cell culture: The cell lines were obtained from the American Type Culture Collection (ATCC). U2OS (human osteosarcoma) was cultured in Dulbecco's modified Eagle's medium (DMEM). PC3 (human prostate carcinoma), MCF7 (human breast cardinoma), HCT116 (human colon carcinoma), […], U251 (human glyoblastoma) were grown in RPMI. All media were supplemented with 10% fetal bovine serum (FBS) (Sigma) and antibiotics-antimycotics. Cell were maintained in a humidified incubator at 37° C. with 5% CO2 and passaged when confluent using trypsin/EDTA.
AKT phosphorylation Inhibition Western Blot Analysis: Subconfluent cells were incubated under different conditions and washed twice with TBS prior to lysis. Lysis buffer was added containing 50 mM Tris HCl, 150 mM NaCl, 1% NP-40, 2 mM Na3VO4, 100 mM NaF, 20 mM Na4P2O7 and protease inhibitor cocktail (Roche Molecular Biochemicals). The proteins were resolved on 10% SDS-PAGE and transferred to nitrocellulose membrane (Schleicher & Schuell, Dassel, Germany). The membranes were incubated overnight at 4° C. with antibodies specific for Akt, phospho-Ser-473-Akt (Cell Signaling Technology) and α-tubulin (Sigma), they were washed and then incubated with IRDye800 conjugated anti-mouse and Alexa Fluor 680 goat anti-rabbit IgG secondary antibodies. The bands were visualized using an Odyssey infrared imaging system (Li-Cor Biosciences).

[3] = system: phospho-AKT (Ser473) in Osteosarcoma U2OS cells; experiment: PI3K cellular activity, ELISA (phospho-AKT Ser473); assay type: cell-based; settings: Homo sapiens, cellular p-AKT
Protocol: as §1
Activity was measured as endogenous levels of phospho-AKT (Ser473) protein. Osteosarcoma U2OS cells were plated in 96 Poly-D-Lysine coating tissue culture plates (18.000 cells/well). After the treatment with serial dilutions of the compound during 3 h, the cells were fixed directly in the wells with 4% paraformaldehide. After fixing, individual wells went through the same series of steps used for a conventional immunoblot: including blocking with 5% BSA, incubation with 1/1000 of primary antibody-AKT ([…]) in PBS containing 5% BSA at 4° C. overnight (Cell Signalling), washing and incubation with second antibody HRP-anti-mouse IgG for 1 h at RT (Amersham). After the addition of SuperSignal ELISA Femto maximum sensitivity chemiluminescent substrate (Pierce) the results were read in a luminescence plate reader (Victor).

T1 sequence (P42336 whole entry): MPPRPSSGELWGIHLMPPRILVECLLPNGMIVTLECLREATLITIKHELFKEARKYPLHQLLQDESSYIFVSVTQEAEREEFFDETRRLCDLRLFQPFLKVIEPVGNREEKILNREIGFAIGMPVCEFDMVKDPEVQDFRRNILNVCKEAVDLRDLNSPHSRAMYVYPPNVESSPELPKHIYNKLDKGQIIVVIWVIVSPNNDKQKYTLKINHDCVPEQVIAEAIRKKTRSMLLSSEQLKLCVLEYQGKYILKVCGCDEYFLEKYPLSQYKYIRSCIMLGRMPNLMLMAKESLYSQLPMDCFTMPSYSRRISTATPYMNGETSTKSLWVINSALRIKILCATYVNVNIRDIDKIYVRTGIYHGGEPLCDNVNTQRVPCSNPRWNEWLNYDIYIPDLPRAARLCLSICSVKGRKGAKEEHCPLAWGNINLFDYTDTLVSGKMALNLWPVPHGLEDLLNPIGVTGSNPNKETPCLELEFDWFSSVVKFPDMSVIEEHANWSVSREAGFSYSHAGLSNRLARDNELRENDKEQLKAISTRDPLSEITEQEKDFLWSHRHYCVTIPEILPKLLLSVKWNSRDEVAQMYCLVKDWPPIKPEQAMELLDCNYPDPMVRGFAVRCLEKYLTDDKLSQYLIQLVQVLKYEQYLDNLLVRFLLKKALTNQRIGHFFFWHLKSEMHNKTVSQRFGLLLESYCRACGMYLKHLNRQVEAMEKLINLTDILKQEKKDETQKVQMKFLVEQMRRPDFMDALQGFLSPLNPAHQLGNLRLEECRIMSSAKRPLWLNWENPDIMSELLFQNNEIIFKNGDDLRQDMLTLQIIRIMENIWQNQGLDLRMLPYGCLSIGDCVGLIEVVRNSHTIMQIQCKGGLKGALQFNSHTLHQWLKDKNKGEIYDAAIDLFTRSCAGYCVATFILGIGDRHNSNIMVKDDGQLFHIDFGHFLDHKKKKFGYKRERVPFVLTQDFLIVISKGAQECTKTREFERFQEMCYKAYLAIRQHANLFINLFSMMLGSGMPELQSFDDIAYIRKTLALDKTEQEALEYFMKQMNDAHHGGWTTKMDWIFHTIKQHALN
T1 sequence (P27986 whole entry partner): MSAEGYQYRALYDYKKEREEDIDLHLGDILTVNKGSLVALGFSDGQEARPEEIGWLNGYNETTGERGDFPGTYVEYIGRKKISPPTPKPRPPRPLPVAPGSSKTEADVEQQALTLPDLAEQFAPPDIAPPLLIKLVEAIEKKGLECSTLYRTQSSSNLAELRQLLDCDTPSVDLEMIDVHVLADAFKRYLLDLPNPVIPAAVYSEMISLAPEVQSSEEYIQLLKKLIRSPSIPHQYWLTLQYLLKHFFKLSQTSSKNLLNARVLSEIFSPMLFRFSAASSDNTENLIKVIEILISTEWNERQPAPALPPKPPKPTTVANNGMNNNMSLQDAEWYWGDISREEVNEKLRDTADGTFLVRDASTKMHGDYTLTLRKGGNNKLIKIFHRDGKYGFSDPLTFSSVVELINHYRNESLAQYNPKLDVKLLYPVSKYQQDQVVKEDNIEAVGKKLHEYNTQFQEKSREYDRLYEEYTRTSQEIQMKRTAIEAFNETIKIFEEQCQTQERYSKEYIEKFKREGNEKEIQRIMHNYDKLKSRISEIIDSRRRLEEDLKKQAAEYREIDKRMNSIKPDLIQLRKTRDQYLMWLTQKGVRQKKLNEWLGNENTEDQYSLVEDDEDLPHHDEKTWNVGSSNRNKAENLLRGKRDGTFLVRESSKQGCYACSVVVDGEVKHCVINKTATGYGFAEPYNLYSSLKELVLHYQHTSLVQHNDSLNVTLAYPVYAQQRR

| IC50 ([1]; PI3Kα) [nM] | IC50 [2] [nM] | IC50 [3] [nM] | IC50 [1] [nM] | Compound |
| --- | --- | --- | --- | --- |
| 755 | 56 | – | – | c1cc(-c2cn3c4c(nc3c(N3CCOCC3)n2)CCNC4)c2cn[nH]c2c1 [2-04] |
| 69 | 245 | – | – | Nc1ncc(-c2cn3c4c(nc3c(N3CCOCC3)n2)CCN(Cc2ccccn2)C4)cn1 [2-18] |
| 84 | 78 | – | – | CCOC(=O)N1CCc2nc3c(N4CCOCC4)nc(-c4cnc(N)nc4)c(Cl)n3c2C1 [2-32] |
| 23 | – | 450 | – | Nc1ncc(-c2cn3c4c(nc3c(N3CCOCC3)n2)CCN(S(=O)(=O)C2CCCC2)C4)cn1 [2-69] |
| 47 | – | 473 | – | COc1ccccc1NC(=O)N1CCc2nc3c(N4CCOCC4)nc(-c4cnc(N)nc4)cn3c2C1 [2-72] |
| 29 | – | 236 | – | CCS(=O)(=O)N1CCc2nc3c(N4CCOCC4)nc(-c4cnc(N)nc4)cn3c2C1 [2-73] |
| 74 | – | 888 | – | CN(C)c1ccc(NC(=O)N2CCc3nc4c(N5CCOCC5)nc(-c5cnc(N)nc5)cn4c3C2)cc1 [2-74] |
| 25 | – | 497 | – | Nc1ncc(-c2cn3c4c(nc3c(N3CCOCC3)n2)CCN(C(=O)NCc2cccc(F)c2)C4)cn1 [2-83] |
| 54 | – | 344 | – | COCCS(=O)(=O)N1CCc2nc3c(N4CCOCC4)nc(-c4cnc(N)nc4)cn3c2C1 [2-85] |
| 46 | – | 302 | – | Nc1ncc(-c2cn3c4c(nc3c(N3CCOCC3)n2)CCN(C(=O)NCc2ccccc2F)C4)cn1 [2-90] |
| 75 | – | 443 | – | Nc1ncc(-c2cn3c4c(nc3c(N3CCOCC3)n2)CCN(C(=O)Nc2cccc(F)c2)C4)cn1 [2-91] |
| 64 | – | 415 | – | COc1cccc(NC(=O)N2CCc3nc4c(N5CCOCC5)nc(-c5cnc(N)nc5)cn4c3C2)c1 [2-93] |
| 37 | – | 260 | – | Cc1ccc(CNC(=O)N2CCc3nc4c(N5CCOCC5)nc(-c5cnc(N)nc5)cn4c3C2)cc1 [2-94] |
| 28 | – | 385 | – | COc1ccc(CNC(=O)N2CCc3nc4c(N5CCOCC5)nc(-c5cnc(N)nc5)cn4c3C2)cc1 [2-96] |
| 38 | – | 491 | – | COc1cccc(CNC(=O)N2CCc3nc4c(N5CCOCC5)nc(-c5cnc(N)nc5)cn4c3C2)c1 [2-97] |
| 70 | – | 541 | – | COc1ccc(NC(=O)N2CCc3nc4c(N5CCOCC5)nc(-c5cnc(N)nc5)cn4c3C2)cc1 [2-102] |

| IC50 ([1]; PI3Kα) [nM] | IC50 [2] [nM] | IC50 [3] [nM] | IC50 [1] [nM] | Compound |
| --- | --- | --- | --- | --- |
| 44 | – | 345 | – | Cc1ccc(NC(=O)N2CCc3nc4c(N5CCOCC5)nc(-c5cnc(N)nc5)cn4c3C2)cc1 [2-105] |
| 95 | – | 763 | – | CC(C)CS(=O)(=O)N1CCc2nc3c(N4CCOCC4)nc(-c4cnc(N)nc4)cn3c2C1 [2-109] |
| – | 174 | – | 45 | COc1ccc(CN2CCc3c(nc4c(N5CCOCC5)nc(-c5cnc(N)nc5)cn34)C2=O)cc1 [5-06] |
| – | – | 475 | 14 | Nc1ncc(-c2cn3c4c(nc3c(N3CCOCC3)n2)CCC(=O)N4)cn1 [5-11] |
| – | 318 | – | 88 | CN1CCc2c(nc3c(N4CCOCC4)nc(-c4cnc(N)nc4)cn23)C1 [6-02] |
| – | 532 | – | 50 | COCCN1CCc2c(nc3c(N4CCOCC4)nc(-c4cnc(N)nc4)cn23)C1 [6-03] |
| – | 180 | – | 121 | COCCN1CCc2c(nc3c(N4CCOCC4)nc(-c4cnc(N)nc4)c(Cl)n23)C1 [6-09] |
| – | – | 246 | 33 | CS(=O)(=O)N1CCc2c(nc3c(N4CCOCC4)nc(-c4cnc(N)nc4)c(Cl)n23)C1 [6-17] |
| – | – | 218 | 29 | Nc1ncc(-c2cn3c4c(nc3c(N3CCOCC3)n2)CN(C(=O)C2CC2)CC4)cn1 [6-24] |
| – | – | 137 | 44 | CC(C)C(=O)N1CCc2c(nc3c(N4CCOCC4)nc(-c4cnc(N)nc4)cn23)C1 [6-26] |
| – | – | 188 | 25 | COc1ccccc1NC(=O)N1CCc2c(nc3c(N4CCOCC4)nc(-c4cnc(N)nc4)cn23)C1 [6-33] |
| – | – | 250 | 21 | Nc1ncc(-c2cn3c4c(nc3c(N3CCOCC3)n2)CN(C(=O)Nc2ccccc2F)CC4)cn1 [6-36] |
| – | – | 187 | 17 | CN(C)c1ccc(NC(=O)N2CCc3c(nc4c(N5CCOCC5)nc(-c5cnc(N)nc5)cn34)C2)cc1 [6-39] |
| – | – | 139 | 7 | Nc1ncc(-c2cn3c4c(nc3c(N3CCOCC3)n2)CN(C(=O)NCc2ccccc2F)CC4)cn1 [6-44] |
| – | – | 101 | 14 | Nc1ncc(-c2cn3c4c(nc3c(N3CCOCC3)n2)CN(C(=O)Nc2cccc(F)c2)CC4)cn1 [6-45] |
| – | – | 112 | 7 | COc1ccccc1CNC(=O)N1CCc2c(nc3c(N4CCOCC4)nc(-c4cnc(N)nc4)cn23)C1 [6-46] |
